Measured values from patent publication US9925263B2, “Liquid pharmaceutical formulations for injection comprising procaine and uses thereof” (EAGLE BIOLOGICS, INC., priority 2013, dated 2018).
Counter-ions that a name gives are not always drawn.

Experiments:
biosimilar AVASTIN® = experiment: Viscosity of aqueous solutions of biosimilar AVASTIN® with viscosity-lowering agents; format: physicochemical
Experimental: (unless otherwise indicated).
The protein was formulated to contain either 0.25 M phosphate buffer or 0.25 M CSAL.
Subsequently, the appropriate amount of viscosity-lowering agent was added to result in a final viscosity-lowering agent concentration of 0.15-0.35 M upon reconstitution.
The viscosity-lowering agent(s) were added in an amount sufficient to give concentration upon reconstitution as specified below. In cases of combinations of agents, the concentration of each component is 0.15 M. The protein solutions were then freeze-dried.

biosimilar ERBITUX® = experiment: Viscosity of aqueous solutions of biosimilar ERBITUX® with viscosity-lowering agents
Experimental: All viscosities of well-mixed aqueous mAb solutions were measured using either a mVROC microfluidic viscometer (RheoSense) or a DV2T cone and plate viscometer (Brookfield; “C & P”) after a 5 minute equilibration at 25° C. (unless otherwise indicated). The mVROC viscometer was equipped with an “A” or “B” chip, each manufactured with a 50 micron channel. Typically, 0.10 mL of protein solution was back-loaded into a gastight microlab instrument syringe (Hamilton; 100 μL), affixed to the chip, and measured at multiple flow rates, approximately 20%, 40%, and 60% of the maximum pressure for each chip. […] An average absolute viscosity and standard deviation was then calculated from at least these three measurements. The C & P viscometer was equipped with a CPE40 or CPE52 spindle (cone angle of 0.8° and 3.0°, respectively) and 0.50 mL samples were measured at multiple shear rates between 2 and 400 s^−1. […] An extrapolated zero-shear viscosity was then determined from a plot of dynamic viscosity versus shear rate for the samples measured on a DV2T cone and plate viscometer. The extrapolated zero-shear viscosities reported are the average and standard deviation of at least three measurements.
First, Polysorbate 80 was removed using DETERGENT-OUT® TWEEN® Medi Columns (G-Biosciences). […] The collected protein solution was freeze-dried. The dried protein cakes, containing protein and buffer salts or agent, were reconstituted to a final volume of 0.15-1.3 mL. […] Reported protein concentrations represent the range of all protein samples included in each Table or Figure. Specifically, reported values are the median plus or minus half the range. Extrapolated zero-shear using an experimentally determined extinction coefficient of 1.4 L/g·cm and viscosities reported were measured on a DV2T cone and plate viscometer.
The final concentration of CSAL upon reconstitution in an aqueous CSAL solution ranged from 0.25 M to 0.50 M.
Specifically, 20 mM solutions of the viscosity-lowering agents of interest were used for buffer exchange, and the lyophilized cakes were reconstituted to 0.25 M of each viscosity-lowering agent. […] The sample was first aliquoted. […] The dried protein cakes, containing protein and viscosity-lowering agent (and a negligible amount of buffer salts) were reconstituted to a final volume of approximately 0.10 mL and viscosity-lowering agent concentration as previously described.
First, Polysorbate was removed from the commercially obtained mAb solutions.
Specifically, 20 mM solutions of the salts of interest were used for buffer exchange, and the lyophilized cakes were reconstituted to contain 0.25 M of each agent. Viscosities were measured using either a RheoSense mVROC microfluidic viscometer equipped with an “A” or “B” chip or a DV2T cone and plate viscometer.
Subsequently, the aqueous drug product was purified, buffer exchanged, concentrated, dried, reconstituted, and analyzed as described in the same manner. Viscosities reported were measured on a RheoSense mVROC microfluidic viscometer.

biosimilar RITUXAN® = experiment: Viscosity of aqueous solutions of biosimilar RITUXAN® with viscosity-lowering agents; conditions: […] agent, 25° C.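 Also: absolute viscosity of aqueous antibody solutions determined by microfluidic viscometry (mVROC chip, 50 micron channel) at several flow rates after 5 min equilibration, mean of at least three readings.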
Experimental: All viscosities of well-mixed aqueous mAb solutions were measured using either a mVROC microfluidic viscometer (RheoSense) or a DV2T cone and plate viscometer (Brookfield; “C & P”) after a 5 minute equilibration at 25° C. […] The mVROC viscometer was equipped with an “A” or “B” chip, each manufactured with a 50 micron channel. Typically, 0.10 mL of protein solution was back-loaded into a gastight microlab instrument syringe (Hamilton; 100 μL), affixed to the chip, and measured at multiple flow rates, approximately 20%, 40%, and 60% of the maximum pressure for each chip. […] An average absolute viscosity and standard deviation was then calculated from at least these three measurements. The C & P viscometer was equipped with a CPE40 or CPE52 spindle (cone angle of 0.8° and 3.0°, respectively) and 0.50 mL samples were measured at multiple shear rates between 2 and 400 s^−1. […] An extrapolated zero-shear viscosity was then determined from a plot of dynamic viscosity versus shear rate for the samples measured on a DV2T cone and plate viscometer. The extrapolated zero-shear viscosities reported are the average and standard deviation of at least three measurements.
Viscosities were measured using a RheoSense mVROC microfluidic viscometer equipped with an “A” or “B” chip.

[1] = 222 ± 5 mg/mL mAb, pH 7.0, 0.25M agent, 25° C.
[2] = 200 ± 5 mg/mL mAb, pH 7.0, 25° C., [Salt] 0.25 M of anion, C & P viscometer
[3] = 200 ± 5 mg/mL mAb, pH 7.0, 25° C., [Salt] […] of anion, C & P viscometer
[4] = 229 mg/mL mAb, […] agent, pH 7.0, 25° C., microfluidic
[5] = 221 mg/mL mAb, […] agent, pH 7.0, 25° C., microfluidic

Cc1nccn1CCCN.Cl.Cl [APMI*2HCl, 1-(3-aminopropyl)-2-methyl-1H-imidazole dihydrochloride]
Viscosity-lowering effect as a function of agent concentration (biosimilar AVASTIN®; 0.10 vs 0.25 M APMI*2HCl, FIG. 7): viscosity-lowering effect was increased

C[C@H]1[C@H](NC(=O)/C(=N\OC(C)(C)C(=O)O)c2csc(N)n2)C(=O)N1S(=O)(=O)O [Aztreonam, reference compound]
Viscosity (biosimilar ERBITUX®; 179 mg/mL mAb, 0.02M agent, 25° C.): 256 ± 4 cP

NCCCC[C@H](N)C(=O)O.O=S(=O)(O)c1ccccc1 [BSAL, benzenesulfonic acid lysine]
Viscosity (biosimilar ERBITUX®; [1]): 126 ± 1 cP | Viscosity (biosimilar ERBITUX®; 225 ± 5 mg/mL mAb, pH 7.0, 0.25M agent, 20° C.): 193 ± 0 cP | Viscosity (biosimilar ERBITUX®; 225 ± 5 mg/mL mAb, pH 7.0, 0.25M agent, 25° C.): 126 ± 1 cP | Viscosity (biosimilar ERBITUX®; 225 ± 5 mg/mL mAb, pH 7.0, 0.25M agent, 30° C.): 89.8 ± 0.8 cP | Viscosity (biosimilar AVASTIN®; 230 ± 5 mg/mL mAb, pH 7.0, […], 20° C.): 395 ± 3 cP | Viscosity (biosimilar AVASTIN®; 230 ± 5 mg/mL mAb, pH 7.0, […], 25° C.): 227 ± 5 cP

N=C(N)NCCC[C@H](N)C(=O)O.O=C(O)c1ccccc1 [Benzoic acid arginine]
Viscosity (biosimilar AVASTIN®; [2]): 51.4 ± 0.5 cP | Viscosity (biosimilar AVASTIN®; [3]): 52.2 ± 0.5 cP

CC1(C)C2CCC1(CS(=O)(=O)O)C(=O)C2.OCCN(CCO)CCO (centres unmarked) [CSA Triethanolamine]
Viscosity (biosimilar AVASTIN®; 238 mg/mL mAb, agent […], 25° C.): 144 ± 1 cP

CC1(C)C2CCC1(CS(=O)(=O)O)C(=O)C2.N=C(N)NOCC[C@H](N)C(=O)O (centres unmarked) [CSA canavanine]
Viscosity (biosimilar AVASTIN®; [2]): 75.6 ± 3.0 cP | Viscosity (biosimilar AVASTIN®; [3]): 60.5 ± 0.6 cP

CC1(C)C2CCC1(CS(=O)(=O)O)C(=O)C2.Nc1ccncc1 (centres unmarked) [CSA-4-aminopyridine]
Viscosity (biosimilar RITUXAN®; 195 mg/mL mAb): 47.0 ± 1.4 cP | Viscosity (biosimilar RITUXAN®; 233 mg/mL mAb): 66.5 ± 0.8 cP | Viscosity (biosimilar AVASTIN®; [4]): 86.4 ± 1.1 cP

Cc1nnc(SCC2=C(C(=O)O)N3C(=O)[C@@H](NC(=O)Cn4cnnn4)[C@H]3SC2)s1 [Cefazolin, reference compound]
Viscosity (biosimilar RITUXAN®; 206 mg/mL mAb): 65.1 ± 1.8 cP | Viscosity (biosimilar AVASTIN®; [4]): 60.6 ± 1 cP

CO[C@@]1(NC(=O)Cc2cccs2)C(=O)N2C(C(=O)O)=C(COC(N)=O)CS[C@@H]21 [Cefoxitin sodium salt, reference compound]
Viscosity (biosimilar ERBITUX®; 194 mg/mL mAb, […] agent, 25° C.): 166 ± 8 cP

Nc1ccn(C[C@@H](CO)OCP(=O)(O)O)c(=O)n1 [Cidofovir hydrate, reference compound]
Viscosity (biosimilar ERBITUX®; 189 mg/mL mAb, 0.02M agent, 25° C.): 284 ± 5 cP | Viscosity (biosimilar AVASTIN®; 210 mg/mL mAb, agent 0.02M, 25° C.): 121 ± 2 cP

O=C1NC(c2ccccc2)(c2ccccc2)C(=O)N1COP(=O)(O)O [Fosphenytoin disodium salt, reference compound]
Viscosity (biosimilar ERBITUX®; 188 mg/mL mAb, […] agent, 25° C.): 119 ± 2 cP

NC(CO)(CO)CO.O=C[C@H](O)[C@@H](O)[C@H](O)[C@H](O)C(=O)O [Glucuronic acid-tris]
Viscosity (biosimilar RITUXAN®; 207 mg/mL mAb): 149 ± 13 cP | Viscosity (biosimilar AVASTIN®; [5]): 151 ± 5 cP | Viscosity (biosimilar AVASTIN®; 221 mg/mL mAb, […] agent, pH 7.0, 25° C., microfluidic, listed as Glucuronic acid-Tris): 151 ± 5.0 cP

CCN(CC)CC(=O)Nc1c(C)cccc1C [Lidocaine HCl, reference compound]
Viscosity (biosimilar ERBITUX®; 223 mg/mL mAb, […] agent, 25° C.): 33.8 ± 0.4 cP | Viscosity (biosimilar AVASTIN®; 218 mg/mL mAb, agent […], 25° C.): 147 ± 15 cP | Viscosity (biosimilar AVASTIN®; 237 mg/mL mAb, agent […], 25° C.): 97.3 ± 1.8 cP

NCCCC[C@H](N)C(=O)O [Lysine•HCl, reference compound]
Viscosity (biosimilar ERBITUX®; [1]): 128 ± 2 cP | Fold Reduction (biosimilar ERBITUX®; vs phosphate buffer, 222 ± 5 mg/mL mAb, pH 7.0, 0.25M agent, 25° C.): 8.8 fold | Viscosity (biosimilar AVASTIN®; [2]): 137 ± 2 cP

CS(=O)(=O)O.N=C(N)NCCC[C@H](N)C(=O)O [MSA arginine]
Viscosity (biosimilar AVASTIN®; [2]): 93.1 ± 0.9 cP

Cc1cccc(C)c1NC(=O)C1CCCCN1C (centres unmarked) [Mepivacaine HCl, reference compound]
Viscosity (biosimilar RITUXAN®; 185 mg/mL mAb): 46.8 ± 0.6 cP | Viscosity (biosimilar AVASTIN®; 223 mg/mL mAb, agent […], 25° C.): 129 ± 3 cP

CCN(CC)CCNC(=O)c1cc(Cl)c(N)cc1OC [Metoclopramide HCl, reference compound]
Viscosity (biosimilar RITUXAN®; 194 mg/mL mAb): 39.3 ± 0.4 cP | Viscosity (biosimilar AVASTIN®; 230 mg/mL mAb, agent […], 25° C.): 64.4 ± 1.6 cP

COc1c(N2C[C@@H]3CCCN[C@@H]3C2)c(F)cc2c(=O)c(C(=O)O)cn(C3CC3)c12 [Moxifloxacin HCl, reference compound]
Viscosity (biosimilar ERBITUX®; 186 mg/mL mAb, […] agent, 25° C.): 66.7 ± 1.0 cP

Cl.[Cl-].c1cc[n+](-c2ccncc2)cc1 [N-(4-Pyridiyl)pyridinium Cl HCl]
Viscosity (biosimilar AVASTIN®; [5]): 68.5 ± 1.1 cP

[Cl-].[Na+] [NaCl, reference compound]
Viscosity (biosimilar AVASTIN®; [2]): 121 ± 8 cP

NC(=O)c1cccnc1 [Nicotinamide]
Viscosity (biosimilar ERBITUX®; 232 mg/mL mAb, […] agent, 25° C.): 292 ± 10 cP

CNC[C@H](O)c1cccc(O)c1 [Phenylephrine HCl, reference compound]
Viscosity (biosimilar ERBITUX®; 183 mg/mL mAb, […] agent, 25° C.): 54.1 ± 2.9 cP | Viscosity (biosimilar AVASTIN®; 201 mg/mL mAb, agent […], 25° C.): 108 ± 1 cP

CCN1CCN(C(=O)N[C@@H](C(=O)N[C@@H]2C(=O)N3[C@@H]2SC(C)(C)[C@@H]3C(=O)O)c2ccccc2)C(=O)C1=O [Piperacillin sodium salt, reference compound]
Viscosity (biosimilar RITUXAN®; 194 mg/mL mAb): 127 ± 2 cP | Viscosity (biosimilar AVASTIN®; 206 mg/mL mAb, agent […], 25° C.): 197 ± 5 cP
